In patent US11466006B2, “Dual selective PI3 delta and gamma kinase inhibitors” (Rhizen Pharmaceuticals SA, priority 2013, dated 2022):

Test system: ovalbumin sensitized mice
Assay: Murine asthma model (ovalbumin sensitized mice)
Type: in vivo, mouse
Conditions: 3 mg/kg oral
Source text: Airway inflammation and hyper-responsiveness (AHR) are hallmarks and distinguishing features of bronchial asthma. Provocation of pre-sensitized mice with the same allergen induces airway inflammation with preferential eosinophilic infiltration and, as a consequence, AHR. Pulmonary eosinophilia and airway remodelling in conjunction with altered neural control of airway tone and airway epithelial desquamation may contribute to AHR in asthma. After the quarantine period, based on their body weights, mice were randomized and divided into four groups (n=7). Tails were marked with an indelible marking pen for identification. On day 0, weights were recorded and animals were sensitized with 100 μg of Ovalbumin and 10 mg of alum solution (0.2 mL) intraperitoneally. On day 7 and day 14, the above sensitization protocol was repeated. […] On day 24, 25, and 26, after the treatment with test compound by oral gavage, 30 mins later animals were exposed to 10% w/v Ovalbumin challenge. […] Forty eight hours after last OVA challenge, airway hyperresponsiveness was measured by whole body plethysmograph against cumulative doses of methacholine challenge (2.5, 10, 50 and 100 mg/ml), after measuring the airway response, blood samples and BAL fluid was collected. Samples were analysed for total cell count by using neubuear chamber under microscope and differential leukocyte count was done manually.

For `CC[C@H](Nc1ncnc2[nH]cnc12)c1oc2ccccc2c(=O)c1-c1cccc(F)c1` [Compound A1, (S)-2-(1-(9H-purin-6-ylamino)propyl)-3-(3-fluorophenyl)-4H-chromen-4-one], the “airway hyperresponsiveness against methacholine challenge” value was “significant reduction” and the “eosinophil infiltration into the bronchoalveolar lavage fluid” value was “significant inhibition”.
